Where two headings read alike, the source gives them in different places.
How the values were obtained:
A549 cells [1] = test: in vitro; format: cell-based, human
Description: (§1) A549 cells (Korean Cell Line Bank), the human lung cancer tissue derived cell line, were cultured in 100 mm dish containing RPMI (Gibro-BRL, USA) supplemented with 10% FBS until the confluency reached 80%. […] The concentration of vehicle was up to 0.1% in every experiment.
(§2) MTT assay was performed with A549 cell line according to the method of Mossman, et al (J. Immunol. Methods, 65, 55-63, 1983).
(§3) 48 hours later, 5 mg/ml of MTT (3-4,5-dimethylthiazol-2,5-diphenyltetra zolium bromide) was added thereto, followed by culture at 37° C. for 3 hours. Then, the medium was discarded and the formed formazan crystal was dissolved in 500 μl of DMSO, which was aliquoted in 96-well plate. OD540 was measured.

A549 cells [2] = test: Micro RNA expression pattern by oligo microarray (Agilent Human miRNA array v16.0, 1347 human micro RNAs); format: cell-based; conditions: A549, treated at IC20 for 48 hours; for number of up-regulated micro RNAs out of 1347 / up-regulated micro RNA, share of 1347 micro RNAs: signal ratio to control higher than 1.5; for down-regulated micro RNA, share of 1347 micro RNAs / number of down-regulated micro RNAs out of 1347: signal ratio to control lower than 0.66
[3] = test system: hsa-miR-590-5p (MIMAT0003258); test: Micro RNA microarray, change of hsa-miR-590-5p expression; format: cell-based, human; conditions: for Change (Fold) hsa-miR-590-5p: A549, treated at IC20 for 48 hours, microarray, versus control
[4] = test system: hsa-miR-28-5p (MIMAT0000085); test: Micro RNA microarray, change of hsa-miR-28-5p expression; format: cell-based, human; conditions: for Change (Fold) hsa-miR-28-5p: A549, treated at IC20 for 48 hours, microarray, versus control
in vitro = format: cell-based, human; conditions: human
Description: as §1, §2, §3

Row | SMILES | IC20 (A549 cells [1]) [µM] | number of up-regulated micro RNAs out of 1347 (A549 cells [2]) | up-regulated micro RNA, share of 1347 micro RNAs (A549 cells [2]) [%] | down-regulated micro RNA, share of 1347 micro RNAs (A549 cells [2]) [%] | number of down-regulated micro RNAs out of 1347 (A549 cells [2]) | Change (Fold) hsa-miR-590-5p [3] [Fold] | expression level of hsa-miR-590-5p compared to the normal control group ([3]; result in words) | Change (Fold) hsa-miR-28-5p [4] [Fold] | expression level of hsa-miR-28-5p compared to the normal control group ([4]; result in words) | expression level of hsa-miR-590-5p compared to the normal control group [3] | expression level of hsa-miR-28-5p compared to the normal control group [4] | IC20 at 48 h (in vitro) [µM]
1 | CCCC=O [butylaldehyde] | 4600 | 14 | 1.04 | 0.82 | 11 | 0.563 | down-regulated | 0.962 | – | – | – | –
2 | CCCCCCC=O [heptanal] | – | 0 | 0.00 | 0.30 | 4 | 0.512 | down-regulated | 0.922 | down-regulated | – | – | –
3 | CCCCCC=O [hexanal] | – | 5 | 0.37 | 0.07 | 1 | – | – | – | – | up-regulated | up-regulated | –
4 | CCCCCCCCC=O [nonanal] | – | 6 | 0.45 | 0.00 | 0 | 0.966 | down-regulated | 1.569 | up-regulated | – | – | 440
5 | CCCCCCCC=O [octanal] | – | one | 0.07 | 1.04 | 14 | 0.508 | down-regulated | 0.755 | down-regulated | – | – | –
6 | CCC=O [propionaldehyde] | – | 13 | 0.97 | 0.15 | 2 | – | – | – | up-regulated | – | – | –
7 | CCCCC=O [valeraldehyde] | – | 8 | 0.59 | 0.15 | 5 | 1.253 | up-regulated | 1.660 | up-regulated | – | – | –
